# Data taken from US11400035B2, “Preservative mixture” (Symrise AG, priority 2016, dated 2022).
# Key:
# [1] = experimentally determined values from literature; cited from earlier work
# [2] = Recrystallization in shampoo, 2 days at 5° C., microscopy; assay type: physicochemical; conditions: polarized light, 60 fold, 0.1% 4-isopropyl-3-methyl-phenol
# Method: To investigate the influence on recrystallization in a finished formulation the pre-solutions BC, BC2, BC3 and BC5 (Table 3) in comparison to neat 4-isopropyl-3-methyl phenol were incorporated into a shampoo. (Table 5, trials 1-5) The samples were stored for 2 days at 5° C. and then examined by microscopy.
# Production method shampoo: Blend Phase A by stirring slowly with a vane stirrer, stop the process when foaming starts. Swell Ucare Poylmer JR-400 in water by stirring and warming up to 50° C. (The dispersion becomes clear and slightly viscous, when swelling process is completed) Add Phases B, C and D to A one after the other by stirring with a vane stirrer.
# Incorporation of 4-isopropyl-3-methyl-phenol (neat) into the finished shampoo: Heat up the shampoo to 70° C., add 4-isopropyl-3-methyl-phenol and stir for 15 min.
# Incorporation of solutions BC, BC2, B3 and BC5: Blend 0,45% (corresponds to 0,1% neat 4-isopropyl-3-methyl-phenol) of the different mixtures with the shampoo formula at 22° C. by […]
# Microscopic images (Olympus IX 70, polarized light, 60 fold) of shampoo formulae 1-5 after 2 days storage at 5° C. are provided in FIGS. 4A to 4E.
# [3] = General solubility of 4-isopropyl-3-methyl-phenol in different hydrophilic solvents, storage at 5° C.; assay type: physicochemical; conditions: stored at 5° C.
# Method: After preparation, the samples were stored at 5° C. for […]. […] The evaluation of these limits was important for further determination of quantitative solubility improvement. The results are compiled in Table A and 13; the symbols have the following meanings: (++++) fully dissolved; (++) dissolved, but moderate recrystallisation after 48 h at 5° C.; (+) dissolved, but strong recrystallisation after 48 h at 5° C.; (#) not dissolved.
Compound,LOG Po/w (exp.) [1],other results
"CCCCC(O)CO (stereo not shown) [1,2-Hexanediol]",0.69,–
Cc1cc(O)ccc1C(C)C [4-isopropyl-3-methyl-phenol],–,Recrystallization in shampoo [2]: recrystallized
OCc1ccccc1 [Benzylalkohol],–,Solubility of 4-isopropyl-3-methyl-phenol in different hydrophilic solvents ([3]; Concentration 15 % b.w.): ++; Solubility of 4-isopropyl-3-methyl-phenol in different hydrophilic solvents ([3]; Concentration 22 % b.w.): +; Solubility of 4-isopropyl-3-methyl-phenol in different hydrophilic solvents ([3]; Concentration 25 % b.w.): +; Solubility of 4-isopropyl-3-methyl-phenol in different hydrophilic solvents ([3]; Concentration 30 % b.w.): +; Solubility of 4-isopropyl-3-methyl-phenol in different hydrophilic solvents ([3]; Concentration 34 % b.w.): +; Solubility of 4-isopropyl-3-methyl-phenol in different hydrophilic solvents ([3]; Concentration 36 % b.w.): +; Solubility of 4-isopropyl-3-methyl-phenol in different hydrophilic solvents ([3]; Concentration 40 % b.w.): +; Solubility of 4-isopropyl-3-methyl-phenol in different hydrophilic solvents ([3]; Concentration 46 % b.w.): +
Cc1ccc(C(C)C)cc1O [Carvacrol],3.49,–
C=C(C)C1CC=C(C)C(=O)C1 (stereo not shown) [Carvone],2.71,–
CCOCCOCCO [Ethoxydiglycol],−0.54,–
CCCCCCCCCCCC(=O)OCC [Ethyl Laurate],5.71,–
CCOC(C)=O [Ethyl acetate],0.73,–
OCCO [Ethylene glycol],−1.36,–
O=C1OCC(CO)O1 (stereo not shown) [Glycerin Carbonate],–,Solubility of 4-isopropyl-3-methyl-phenol in different hydrophilic solvents ([3]; Concentration 5 % b.w.): ++
CC(=O)OCCC(C)C [Isoamyl acetate],2.25,–
C=C(C)[C@H]1CC=C(C)CC1 [Limonene],4.38,–
CC(C)[C@@H]1CC[C@@H](C)CC1=O [Menthone],3.05,–
CC(=O)OC1CC(C)CCC1C(C)C (stereo not shown) [Menthyl acetate],4.00,–
COC(=O)c1ccccc1O [Methyl salicylate],2.55,–
O=C(OCCc1ccccc1)c1ccccc1 [Phenethyl Benzoate],4.01,–
OCCOc1ccccc1 [Phenoxyethanol],1.16,–
CC1COC(=O)O1 (stereo not shown) [Propylene Carbonate],–,Solubility of 4-isopropyl-3-methyl-phenol in different hydrophilic solvents ([3]; Concentration 18 % b.w.): ++; Solubility of 4-isopropyl-3-methyl-phenol in different hydrophilic solvents ([3]; Concentration 29 % b.w.): +
CC(O)CO (stereo not shown) [Propylene Glycol],–,Solubility of 4-isopropyl-3-methyl-phenol in different hydrophilic solvents ([3]; Concentration 22 % b.w.): ++; Solubility of 4-isopropyl-3-methyl-phenol in different hydrophilic solvents ([3]; Concentration 25 % b.w.): +
